Inconclusive results are not listed.
What follows are molecules tested against Cathepsin B (Homo sapiens) (UniProt P07858) (assay: CTSB inhibitor potency, concentration-effect curve, cell-free enzymatic assay, actives from pooled-compound high-throughput screen (AID 830)). Conditions: purified cathepsin B enzyme activity, signal read-out.

Row | SMILES | IC50
1 | Cc1ccc(S(=O)(=O)n2nc(OC(=O)c3cccs3)cc2N)cc1 | 1990 nM
2 | O=S(=O)(/N=S1/CC=CCN1S(=O)(=O)c1ccccc1)c1ccccc1 (stereo unspecified) | 9390 nM
3 | Nc1cc(OC(=O)c2cccs2)nn1S(=O)(=O)c1ccccc1 | 247 nM
4 | Nc1cc(OC(=O)c2ccco2)nn1S(=O)(=O)c1ccc(F)cc1 | 1260 nM
5 | Cc1ccc(S(=O)(=O)n2nc(OC(=O)c3ccco3)cc2N)cc1 | 1750 nM
6 | Nc1nc2n(n1)C1(CCCCC1)C1=C(CCCC1)N2 | 12900 nM

From PubChem BioAssay AID830 (PCMD, 2007)
